Laboratory results from publication PMC10412585 (Nature Communications, 2023).

Columns and labels:
[1] = tested on: HLA-E; assay: Prometheus differential scanning fluorimetry of HLA-E with peptide; type: binding, human; conditions: refolded HLA-E*01:03/β2M 9 μg, 50x peptide to MHC ratio, high sensitivity capillary, 1 °C per minute 20-95 °C, first inflection point; DMSO control 33.8
Description: Differential scanning fluorimetry (DSF) experiments were performed with a Prometheus NanoTemper NT.48 (Munich, Germany) to measure protein stability, using intrinsic tryptophan fluorescence.
For these experiments, refolded empty HLA-E was generated. Human β2M plus a poly-histidine tag and HLA-E*01:03 extracellular α1, α2, and α3 domains plus an AviTag biotinylation tag were separately codon optimized for E. coli and cloned into the bacterial expression vector pET28a. Inclusion bodies for HLA-E and β2M were made in BL21 E. coli. Inclusion bodies were purified, homogenized, and dissolved, including denaturation in 8 M urea solution. Before refolding, each IB was mixed with an equal volume of Gdn-Cl solution (6 M Guanidine HCl, 500 mM Tris, 2 mM EDTA, 100 mM NaCl) and incubated overnight at 37 °C. β2M was injected dropwise with a 27-gauge needle into refolding buffer (100 mM pH 8.3 Tris, 400 mM L-arginine hydrochloride, 2 mM EDTA, 0.5 mM oxidized glutathione, 5 mM reduced glutathione, 0.2 mM PMSF) and incubated, stirring gently, at 4 °C for 1 h, after which an equal mass of HLA-E heavy chain was similarly injected. This solution incubated at 4 °C overnight, followed by two days of dialysis in 10 mM Tris + 50 mM NaCl. Protein was concentrated in 10 kDa molecular weight cutoff centrifugal concentrators and purified by size exclusion chromatography on an AKTAPURE FPLC (GE Healthcare, Chicago IL), using an S200 column followed by a S75 column.
Individual DSF reactions were set up with 9 μg of MHC and 100×, 50×, or 10× peptide to MHC ratio by molarity (peptides from GenScript). The final reaction volume was 20 μL and reaction mixtures were incubated at room temperature for 20–30 min.
Prometheus excitation power was set such that raw fluorescence counts were between 8000–15000 for each sample. Samples were heated at 1 °C per minute, from 20–95 °C. DSF measurements were taken in duplicate with high-sensitivity and standard capillaries. Melting temperatures were similar for a given peptide across conditions, and representative data from 50x ratio in high sensitivity capillary are presented. A secondary inflection point around 60 °C in most melts is consistent with melting of β2M[76]. […]
Supplemental Figure 9. Differential scanning fluorimetry data generated via Prometheus NanoTemper for predicted peptides with HLA-E. a) Raw 350/330 nm ratios and first derivative for samples. The second inflection point is consistent with β2M unfolding. b) Summary of Tm values for the first inflection point called by Prometheus software for these samples. […]

[2] = tested on: NKG2C+ NK cells; assay: NK cell activation assay with peptide-pulsed RMA-S/HLA-E cells; type: cell-based, human; conditions: RMA-S/HLA-E target cells, 300 µM peptide ([…] µM BFAR263-271), E:T 2:1, 6 h, flow cytometry, n = 3 (n = 2 for some) donors
Description: Fig. 4 NK cell stimulation assays. Assessment of effects of peptides on NK cell activity through incubation of NK cells, peptides, and (A) K562/HLA-E or (B) RMA-S/HLA-E target cells. […] Replicates for individual peptides are from different donors, with solid black lines indicating mean values. […] Representative gating for NKG2A^+/NKG2C^- and NKG2A^-/NKG2C^+ NK cells is shown in Supplemental Fig. 14. Source data are provided as a Source Data file.
In contrast to K562 cell lines which are targets for human NK cells, RMA-S cells (a TAP-deficient mouse cell line)[48] are inert to human NK cells and thus will not activate NK cells absent engagement of an activating receptor on the NK cells. […] We performed additional NK cell activation assays with RMA-S/HLA-E cells (Fig. 4B).
All analyses of human data were carried out in compliance with the relevant ethical regulations. Healthy blood donors gave informed consent at DRK Blutspendedienst Nord-Ost, Dresden, Germany, and buffy coats were obtained as approved by Charité ethics committee (EA4/059/17). PBMCs were isolated from human CMV-seropositive buffy coats by density centrifugation over Ficoll Paque Plus (GE Healthcare) and screened for the presence of NKG2C^+ NK cell expansions by flow cytometry to have sufficient frequencies of single-positive cells for parallel assessment of activation and inhibition via HLA-E[47]. Total NK cells from donors with NKG2C^+ expansions (>10% NKG2A^-/NKG2C^+ NK cells) were enriched with CD56 microbeads (Miltenyi Biotec) and cryopreserved in FBS with 10% v/v DMSO. After thawing, NK cells were washed with complete medium, stained with antibodies and Fixable Viability Dye eFluor 780 (Thermo Fisher) for 15 min at 4 °C in PBS, sorted as viable CD56^+ CD3^− cells, and rested in complete media overnight. […] Brefeldin A and Monensin (BD Biosciences) were added after a 1 h culture period. After an additional 5 h, the stimulation was stopped by centrifugation at 4 °C. Cells underwent surface staining, followed by fixation and intracellular staining using Inside Stain Kit (Miltenyi Biotec). Samples were analyzed by flow cytometry on an LSR Fortessa (BD Biosciences). Inhibition of NKG2A^+ NK cells and activation of NKG2C^+ NK cells was assessed by gating on the respective single-positive populations (Supplemental Fig. 14). Antibodies are listed in Supplemental Table 1: anti-human CD56 PE/Dazzle 594 (1:200 dilution), CD3 APC-eFluor 780 (1:50 dilution), anti-human CD159a (NKG2A) Biotin REAfinity (1:50 dilution), anti-human CD159c (NKG2C) PE REAfinity (1:100 dilution), anti-human CD107a (LAMP-1) Alexa Fluor 488 (1:400 dilution), anti-human IFN-γ PE-Vio 770 REAfinity (1:50 dilution), anti-human TNF-α Brilliant Violet 605 (1:50 dilution), anti-human CCL3 (MIP-1α) REAfinity (1:25 dilution).

Sequence: VNPGRSLFL [BFAR263-271, human peptide from Bifunctional apoptosis regulator]
- Tm [1]: 38.5 °C
- NKG2C-mediated NK cell activation [2]: activation similar to the weaker positive control ([…]) or between the two positive controls

Sequence: VMAPRTLFL [positive control]
- Tm [1]: 51.5 °C
- NKG2C-mediated NK cell activation [2]: most potent activating peptide
